What was measured:
[1] = system: Brain microsomal fractions; test: in vitro Anti-lipid peroxidation effect (TBAR production, Fe3+-ADP/NADPH); format: biochemical, rat (SD strain, male)
Protocol: 1. in vitro Anti-lipid peroxidation effect
Brain microsomal fractions were prepared from male rats of SD strain, and a portion (0.2 mg protein) was incubated at 37° C. for 15 minutes with a mixture of Fe^3+ (0.1 mM)--ADP (0.5 mM) in the presence or absence of the test compound, in final volume of 1 ml of 10 mM HEPES, 150 mM KCl, 0.2 mM NADPH, pH 7.4. After incubation, 1.5 ml of TCA-TBA-HCl reagent (16.7% trichloroacetic acid, 0.4% thiobarbituric acid, 0.278N hydrochloric acid) was added and the reaction mixture was heated in a boiling water for 15 minutes. After cooling in ice-bath, the reaction mixture was centrifuged, and the absorbance of the supernatant at 535 nm was measured. The amount of thiobarbituric acid reactive substance (TBAR) was obtained by calculation using an extinction coefficient of 1.56×10^5 […]. […] The results are shown in Table 1A for compounds of the formulas IA, IB, and IC, respectively. The compounds with highest inhibition rate have the greatest anti-lipid peroxidation effect.

[2] = system: pig right coronary artery; test: in vitro Ca-antagonism (high K+ induced 45Ca-influx); format: cell-based; conditions: Sus scrofa, K+ 75 mM
Protocol: 2. in vitro Ca-antagonism
A strip of pig right coronary artery was depolarized with high K^+ (75 mM) for 30 minutes to induce voltage dependent ^45 Ca-influx. The extracellular ^45 Ca was chelated by adding EGTA and removed by washing, then the strip was lysed at 100° C. ^45 Ca in this lysate was measured as intracellular ^45 Ca by a scintillation counter. The concentration of the test compound was 10^-7, 10^-6, 10^-5 M, and applied until depolarization by K^+ was completed. Ratio of inhibition at various concentrations of the test compounds for increasing the intracellular ^45 Ca by K^+ was determined. The compound with high inhibition ratio has strong Ca-antagonism.

SMILES: CC(C)c1ccc(CN2CCN(C(c3ccc(F)cc3)c3ccc(F)cc3)CC2)c(=O)c(NCc2ccccn2)c1 [Compound 12C, 7-[4-(4,4'-difluorobenzhydryl)piperazino-1-methyl]-4-isopropyl-2-(N-2-pyridylmethylamino)-2,4,6-cycloheptatrien-1-one]
- Anti-Lipid Peroxidation (% inhibition) 10 μM [1]: 86.4%
- Anti-Lipid Peroxidation (% inhibition) 50 μM [1]: 89.3%
- inhibition at 10 µM [2]: 47%

SMILES: COc1ccc(C(c2ccc(Cl)cc2)N2CCN(Cc3ccc(C(C)C)cc(OC)c3=O)CC2)cc1 (stereo not drawn) [Compound 10A, 7-[4-(4-chloro-4'-methoxybenzhydryl)piperazin-1-methyl]-4-isopropyl-2-methoxy-2,4,6-cycloheptatrien-1-one]
- Anti-Lipid Peroxidation (% inhibition) 10 μM [1]: 24.0%
- Anti-Lipid Peroxidation (% inhibition) 50 μM [1]: 81.6%
- inhibition at 10 µM [2]: 53%

SMILES: COc1cc(C(C)C)ccc(CN2CCCN(C(c3ccc(F)cc3)c3ccc(F)cc3)CC2)c1=O [Compound 23C, 7-[4-(4,4'-difluorobenzhydryl)hexahydro-1H-1,4-diazepin-1-ylmethyl]-4-isopropyl-2-methoxy-2,4,6-cycloheptatrien-1-one]
- Anti-Lipid Peroxidation (% inhibition) 10 μM [1]: 21.6%
- Anti-Lipid Peroxidation (% inhibition) 50 μM [1]: 90.7%
- inhibition at 10 µM [2]: 86%

SMILES: CC(C)c1ccc(CN2CCN(C(c3ccc(F)cc3)c3ccc(F)cc3)CC2)c(=O)c(NCCNCCN)c1 [Compound 8C, 2-[N-2-(N'-2-aminoethylamino)ethylamino]-7-[4-(4,4'-difluorobenzhydryl)piperazino-1-methyl]-4-isopropyl-2,4,6-cycloheptatrien-1-one]
- Anti-Lipid Peroxidation (% inhibition) 10 μM [1]: 33.1%
- Anti-Lipid Peroxidation (% inhibition) 50 μM [1]: 92.2%
- inhibition at 10 µM [2]: 60%

SMILES: CC(C)c1ccc(CN2CCN(C(c3ccc(F)cc3)c3ccc(F)cc3)CC2)c(=O)c(NCCc2ccccn2)c1 [Compound 11C, 7-[4-(4,4'-difluorobenzhydryl)piperazino-1-methyl]-4-isopropyl-2-[N-2-(2-pyridyl)ethylamino]-2,4,6-cycloheptatrien-1-one]
- Anti-Lipid Peroxidation (% inhibition) 10 μM [1]: 32.2%
- Anti-Lipid Peroxidation (% inhibition) 50 μM [1]: 89.8%
- inhibition at 10 µM [2]: 62%

SMILES: COC(=O)CNc1cc(C(C)C)ccc(CN2CCN(C(c3ccc(F)cc3)c3ccc(F)cc3)CC2)c1=O [Compound 15C, methyl 2-{N-7-[4-(4,4'-difluorobenzhydryl)piperazino-1-methyl]-4-isopropyl-1-oxo-2,4,6-cycloheptatrien-2-ylamino}acetate]
- Anti-Lipid Peroxidation (% inhibition) 10 μM [1]: 38.6%
- Anti-Lipid Peroxidation (% inhibition) 50 μM [1]: 79.8%
- inhibition at 10 µM [2]: 92%

SMILES: COc1cc(C(C)C)ccc(CN2CCN(C(c3ccccc3)c3ccc(C(F)(F)F)cc3)CC2)c1=O (stereo not drawn) [Compound 9A, 4-isopropyl-2-methoxy-7-[4-(4-trifluoromethylbenzhydryl)piperazino-1-methyl]-2,4,6-cycloheptatrien-1-one]
- Anti-Lipid Peroxidation (% inhibition) 10 μM [1]: 29.2%
- Anti-Lipid Peroxidation (% inhibition) 50 μM [1]: 88.1%
- inhibition at 10 µM [2]: 45%

SMILES: CC(C)c1ccc(CN2CCN(C(c3ccc(F)cc3)c3ccc(F)cc3)CC2)c(=O)c(N2CCNCC2)c1 [Compound 19C, 7-[4-(4,4'-difluorobenzhydryl)piperazino-1-methyl]-4-isopropyl-2-(1-piperazino)-2,4,6-cycloheptatrien-1-one]
- Anti-Lipid Peroxidation (% inhibition) 10 μM [1]: 30.1%
- Anti-Lipid Peroxidation (% inhibition) 50 μM [1]: 89.1%
- inhibition at 10 µM [2]: 62%

SMILES: COc1cc(C(C)C)ccc(CN2CCN(C(c3ccc(C(F)(F)F)cc3)c3ccc(C(F)(F)F)cc3)CC2)c1=O [Compound 8A, 7-{4-[4,4'-di(trifluoromethyl)benzhydryl]piperazino-1-methyl}-4-isopropyl-2-methoxy-2,4,6-cycloheptatrien-1-one]
- Anti-Lipid Peroxidation (% inhibition) 10 μM [1]: 32.3%
- Anti-Lipid Peroxidation (% inhibition) 50 μM [1]: 51.8%
- inhibition at 10 µM [2]: 27%

SMILES: CC(C)c1ccc(CN2CCN(C(c3ccc(F)cc3)c3ccc(F)cc3)CC2)c(=O)c(OCc2ccccc2)c1 [Compound 15A, 2-benzyloxy-7-[4-(4,4'-difluorobenzhydryl)piperazino-1-methyl]-4-isopropyl-2,4,6-cycloheptatrien-1-one]
- Anti-Lipid Peroxidation (% inhibition) 10 μM [1]: 22.4%
- Anti-Lipid Peroxidation (% inhibition) 50 μM [1]: 29.0%
- inhibition at 10 µM [2]: 20%

SMILES: COc1cc(C(C)C)ccc(CN2CCN(C(c3ccc(F)cc3)c3ccc(F)cc3)CC2C)c1=O (stereo not drawn) [Compound 22C, 7-[4-(4,4'-difluorobenzhydryl)-2-methylpiperazino-1-methyl]-4-isopropyl-2-methoxy-2,4,6-cycloheptatrien-1-one]
- Anti-Lipid Peroxidation (% inhibition) 10 μM [1]: 32.8%
- Anti-Lipid Peroxidation (% inhibition) 50 μM [1]: 88.7%
- inhibition at 10 µM [2]: 66%

SMILES: CCNc1cccnc1N1CCN(c2cc(C(C)C)ccc(CN3CCN(C(c4ccc(F)cc4)c4ccc(F)cc4)CC3)c2=O)CC1 [Compound 20C, 7-[4-(4,4'-difluorobenzhydryl)piperazino-1-methyl]-2-[4-(3-ethylamino-2-pyridyl)piperazino]-4-isopropyl-2,4,6-cycloheptatrien-1-one]
- Anti-Lipid Peroxidation (% inhibition) 10 μM [1]: 91.6%
- Anti-Lipid Peroxidation (% inhibition) 50 μM [1]: 93.8%
- inhibition at 10 µM [2]: 30%

SMILES: CC(C)c1ccc(CN2CCN(C(c3ccc(F)cc3)c3ccc(F)cc3)CC2)c(=O)c(NCCCN(C)C)c1 [Compound 2C, 7-[4-(4,4'-difluorobenzhydryl)piperazino-1-methyl]-2-(N-3-dimethylaminopropylamino)-4-isopropyl-2,4,6-cycloheptatrien-1-one]
- Anti-Lipid Peroxidation (% inhibition) 10 μM [1]: 29.6%
- Anti-Lipid Peroxidation (% inhibition) 50 μM [1]: 90.8%
- inhibition at 10 µM [2]: 63%

SMILES: CCOc1cc(C(C)C)ccc(CN2CCN(C(c3ccc(F)cc3)c3ccc(F)cc3)CC2)c1=O [Compound 12A, 7-[4-(4,4'-difluorobenzhydryl)piperazino-1-methyl]-2-ethoxy-4-isopropyl-2,4,6-cycloheptatrien-1-one]
- Anti-Lipid Peroxidation (% inhibition) 10 μM [1]: 21.4%
- Anti-Lipid Peroxidation (% inhibition) 50 μM [1]: 50.4%
- inhibition at 10 µM [2]: 72%

SMILES: CC(C)c1ccc(CN2CCN(C(c3ccc(F)cc3)c3ccc(F)cc3)CC2)c(=O)c(NCCNc2ccccn2)c1 [Compound 9C, 7-[4-(4,4'-difluorobenzhydryl)piperazino-1-methyl]-4-isopropyl-2-[N-2-(2-pyridylamino)ethylamino]-2,4,6-cycloheptatrien-1-one]
- Anti-Lipid Peroxidation (% inhibition) 10 μM [1]: 88.1%
- Anti-Lipid Peroxidation (% inhibition) 50 μM [1]: 91.6%
- inhibition at 10 µM [2]: 38%

SMILES: COc1cc(C(C)C)ccc(C(c2ccccc2)N2CCN(C(c3ccccc3)c3ccc(Cl)cc3)CC2)c1=O (stereo not drawn) [Compound 3A, 7-{1-[4-(4-chlorobenzhydryl)piperazinomethyl]-α-phenyl}-4-isopropyl-2-methoxy-2,4,6-cycloheptatrien-1-one]
- Anti-Lipid Peroxidation (% inhibition) 10 μM [1]: 13.8%
- Anti-Lipid Peroxidation (% inhibition) 50 μM [1]: 16.3%
- inhibition at 10 µM [2]: 0%

SMILES: CC(C)c1ccc(CN2CCN(C(c3ccc(F)cc3)c3ccc(F)cc3)CC2)c(=O)c(N(C)CCN(C)C)c1 [Compound 5C, 7-[4-(4,4'-difluorobenzhydryl)piperazino-1-methyl]-2-(N-2-dimethylaminoethyl-N-methylamino)-4-isopropyl-2,4,6-cycloheptatrien-1-one]
- Anti-Lipid Peroxidation (% inhibition) 10 μM [1]: 32.2%
- Anti-Lipid Peroxidation (% inhibition) 50 μM [1]: 90.6%
- inhibition at 10 µM [2]: 94%

Reference: patent US5594144A, “Tropolone derivatives and pharmaceutical composition thereof for preventing and treating ischemic diseases” (The Upjohn Company, priority 1990, dated 1997)
